{"source": "paper PMC7059199", "about": "“Identification and structural insight of an effective PPARγ modulator with improved therapeutic index for anti-diabetic drug discovery” (Chemical Science, 2020)", "key": {"[1]": {"test": "Pharmacokinetic profile in mice", "format": "in vivo", "protocol": "VSP-77 was further evaluated for its preliminary pharmacokinetic profile in mice following oral (10 mg kg^–1) and intravenous (5 mg kg^–1) administration (Table S2 ^†)."}, "[2]": {"target": "hERG potassium ion channel (Homo sapiens, UniProt Q12809)", "sequence (Q12809 whole entry)": "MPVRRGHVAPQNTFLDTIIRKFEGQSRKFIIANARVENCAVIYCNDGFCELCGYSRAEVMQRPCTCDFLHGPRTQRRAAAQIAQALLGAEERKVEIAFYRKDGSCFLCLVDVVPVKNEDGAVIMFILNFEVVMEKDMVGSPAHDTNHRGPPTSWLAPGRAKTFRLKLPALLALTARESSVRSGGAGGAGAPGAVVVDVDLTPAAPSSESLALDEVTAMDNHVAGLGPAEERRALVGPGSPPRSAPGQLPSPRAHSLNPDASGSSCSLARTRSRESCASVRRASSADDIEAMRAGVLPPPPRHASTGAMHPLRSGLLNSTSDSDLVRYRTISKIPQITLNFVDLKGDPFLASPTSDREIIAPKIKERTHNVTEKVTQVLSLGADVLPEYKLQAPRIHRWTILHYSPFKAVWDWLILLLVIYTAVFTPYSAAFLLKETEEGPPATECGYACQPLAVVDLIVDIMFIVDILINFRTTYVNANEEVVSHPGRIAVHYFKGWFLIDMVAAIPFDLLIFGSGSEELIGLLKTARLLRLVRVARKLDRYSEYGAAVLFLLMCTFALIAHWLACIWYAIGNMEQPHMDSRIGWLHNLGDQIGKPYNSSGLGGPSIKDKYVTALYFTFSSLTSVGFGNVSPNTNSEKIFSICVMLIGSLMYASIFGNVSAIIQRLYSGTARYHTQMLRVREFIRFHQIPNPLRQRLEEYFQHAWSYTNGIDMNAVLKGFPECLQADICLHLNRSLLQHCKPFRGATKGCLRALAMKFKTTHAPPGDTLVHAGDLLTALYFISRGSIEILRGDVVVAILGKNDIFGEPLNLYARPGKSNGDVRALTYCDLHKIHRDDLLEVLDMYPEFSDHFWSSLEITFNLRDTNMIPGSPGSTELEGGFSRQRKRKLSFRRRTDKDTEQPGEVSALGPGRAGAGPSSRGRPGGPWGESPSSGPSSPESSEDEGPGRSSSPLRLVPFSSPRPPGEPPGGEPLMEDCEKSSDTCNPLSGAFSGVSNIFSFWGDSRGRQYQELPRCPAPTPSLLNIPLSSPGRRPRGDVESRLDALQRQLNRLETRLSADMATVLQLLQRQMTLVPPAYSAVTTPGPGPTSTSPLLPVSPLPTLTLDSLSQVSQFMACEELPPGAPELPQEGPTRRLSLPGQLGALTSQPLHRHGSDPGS", "test": "Inhibition assay on the hERG potassium ion channel"}, "PPARα": {"target": "T1, PPARα (Homo sapiens, UniProt Q07869)", "T1 sequence (Q07869 1-468)": "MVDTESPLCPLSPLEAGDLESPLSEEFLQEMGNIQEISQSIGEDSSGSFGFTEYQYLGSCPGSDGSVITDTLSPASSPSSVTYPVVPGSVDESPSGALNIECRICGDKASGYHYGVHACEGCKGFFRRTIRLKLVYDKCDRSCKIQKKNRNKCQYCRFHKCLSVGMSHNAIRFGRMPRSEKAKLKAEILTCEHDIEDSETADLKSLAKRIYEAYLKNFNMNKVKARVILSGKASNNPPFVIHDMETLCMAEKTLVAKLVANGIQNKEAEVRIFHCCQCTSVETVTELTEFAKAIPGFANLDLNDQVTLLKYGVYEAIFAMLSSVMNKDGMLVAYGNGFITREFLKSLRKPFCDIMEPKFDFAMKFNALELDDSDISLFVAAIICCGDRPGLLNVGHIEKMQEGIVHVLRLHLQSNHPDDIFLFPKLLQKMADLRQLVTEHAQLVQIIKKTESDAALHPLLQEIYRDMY", "test": "Competitive TR-FRET assay, PPARα", "details": "even at 100 μM"}, "HFD mice": {"test_system": "HFD mice", "test": "Anti-diabetic activity in high-fat diet (HFD) mice, 10 days", "format": "in vivo, C57BL/6J mice"}, "3T3-L1 cells": {"test_system": "3T3-L1 cells", "test": "qPCR of adipogenic genes in 3T3-L1 cells", "format": "cell-based, mouse", "details": "7 days after treatment", "protocol": "Encouraged by the above results and to further determine whether VSP-77 activates PPARγ in 3T3-L1 cells, we evaluated the ability of VSP-77 to stimulate PPARγ activity by measuring the mRNA levels of endogenous PPARγ-regulated downstream genes linked to adipogenesis (primers are listed in Table S1 ^†).\nFig. 7 Expression of adipogenic genes in 3T3-L1 cells was analyzed by quantitative PCR (qPCR). Relative mRNA levels of the adipocyte differentiation genes PPARγ, aP2, CD36, LPL, C/EBPα and Fasn. mRNA was extracted from differentiating cells 7 days after treatment (n = 3, error bars = SEM). […]\n(average±standard deviation calculated from three separate experiments). […]\nCells were stained with Oil Red O to estimate the lipid accumulation. The images were analyzed using ImageJ (National Institutes of Health).\nFor real-time PCR analysis, 1-2 μg total RNA was reverse-transcribed using the SuperScript cDNA Reverse Transcription Kit (Invitrogen) with SYBR Green PCR Master Mix (Invitrogen) and gene specific primers (Table S1) using a Roche Light Cycler 480 machine. The relative expression of mRNA was determined after normalization to β-actin level using the ΔΔ-Ct method. […]"}, "[3]": {"details": "mouse, in vivo, intravenous 5 mg/kg"}, "[4]": {"details": "mouse, in vivo, oral (ig) 10 mg/kg"}, "[5]": {"details": "oral 10 mg/kg, unit as printed in main text"}}, "note": "pIC50: −log10 of the molar value. Entries after “also recorded” stand apart in the source; their conditions may differ."}
{"compound": "CCCCCCCC(OCC(=O)O)c1ccc(Cl)cc1", "note": "(stereo not shown) [VSP-77]", "values": [{"measurement": "AUC(0-inf)", "setting": "[1]; [3]", "value": 5030, "unit": "ng·h/mL"}, {"measurement": "AUC(0-t)", "setting": "[1]; [3]", "value": 5000, "unit": "ng·h/mL"}, {"measurement": "MRT", "setting": "[1]; [3]", "value": 1.11, "unit": "h"}, {"measurement": "half-life", "setting": "[1]; [3]", "value": 1.07, "unit": "h"}, {"measurement": "AUC(0-inf)", "setting": "[1]; [4]", "value": 5880, "unit": "ng·h/mL"}, {"measurement": "AUC(0-t)", "setting": "[1]; [4]", "value": 5770, "unit": "ng·h/mL"}, {"measurement": "Cmax", "setting": "[1]; [4]", "value": 2920, "unit": "ng/mL"}, {"measurement": "MRT", "setting": "[1]; [4]", "value": 1.94, "unit": "h"}, {"measurement": "Tmax", "setting": "[1]; [4]", "value": 0.5, "unit": "h"}, {"measurement": "half-life", "setting": "[1]; [4]", "value": 1.25, "unit": "h"}, {"measurement": "bioavailability", "setting": "[1]; mouse, in vivo, oral (ig) 10 mg/kg vs iv 5 mg/kg, read-out: F (oral bioavailability)", "value": 57.7, "unit": "%"}, {"measurement": "AUC0–t", "setting": "[1]; [5]", "value": 5772, "unit": "ng mL^–1 h^–1"}, {"measurement": "AUC0–∞", "setting": "[1]; [5]", "value": 5877, "unit": "ng mL^–1 h^–1"}, {"measurement": "pIC50", "setting": "[2]", "value": "< 4.30"}, {"measurement": "hERG inhibition (in words)", "setting": "[2]; even at 50 μM", "value": "no obvious inhibition; also recorded: no detectable hERG inhibition"}, {"measurement": "effect on PPARα (in words)", "setting": "PPARα", "value": "no obvious effects"}, {"measurement": "expression of key adipogenesis-related genes in adipose tissue", "setting": "HFD mice", "value": "does not induce"}, {"measurement": "Cdk5-mediated phosphorylation of PPARγ at Ser-273 in adipose tissue", "setting": "HFD mice; 5 mg/kg i.p.", "value": "decrease"}, {"measurement": "body weight and food intake compared to vehicle-treated mice", "setting": "HFD mice; 5 mg/kg i.p.", "value": "without significant differences"}, {"measurement": "expression of glut4 and adiponectin in adipose tissue", "setting": "HFD mice; 5 mg/kg i.p.", "value": "selectively induced"}, {"measurement": "fasting insulin levels", "setting": "HFD mice; 5 mg/kg i.p.", "value": "significant reduction"}, {"measurement": "glucose levels", "setting": "HFD mice; 5 mg/kg i.p.", "value": "lowered"}, {"measurement": "insulin resistance (HOMA-IR)", "setting": "HFD mice; 5 mg/kg i.p.", "value": "clear and dose-dependent improvement"}, {"measurement": "organ / fat weight", "setting": "HFD mice; 5 mg/kg i.p.", "value": "selectively decreased subcutaneous and perirenal fats"}, {"measurement": "expression of adipogenic genes PPARγ, aP2, CD36, LPL, C/EBPα and Fasn (mRNA)", "setting": "3T3-L1 cells", "value": "only weakly stimulated"}]}
